Data taken from patent US20170027952A1, “ASSOCIATION BETWEEN 3-[(3--2-OXO-2,3-DIHYDRO-1H-INDOL-5-YL)METHYL]-1,3-THIAZOLIDINE-2,4-DIONE AND AN EGFR TYR KINASE INHIBITOR” (LES LABORATOIRES SERVIER, priority 2015, published 2017).
Where a name gives a salt, the structure may show the parent alone.

Assays:
[1] = tested on: erlotinib-resistant cell line HCC827; details: resistant line HCC827, compound on its own, 100 nM
Method: A cell viability test allowing the anti-proliferative ability of the anti-tumour compounds to be measured was used. The chosen cell line is line HCC827, a non-small cell lung cancer line that depends upon EGFR for its survival. […] The cells are seeded (150 μl) at the appropriate density in the wells of 96-well plates 2 days prior to the experiment. One column contains the untreated control cells representing 100% proliferation. The others are incubated with the test products for 4 doubling times.

[2] = tested on: erlotinib-resistant HCC827 tumour; test: Inhibition of the growth of the erlotinib-resistant HCC827 tumour; format: in vivo, female SCID mice; details: d19, end of treatments, compounds on their own, oral daily for 19 days; erlotinib 12.5 mg/kg, compound A 50 mg/kg
Method: The tumours were allocated at random into groups of eight mice when the tumour volume had reached approximately 200 mm^3. […] The tumour volumes were measured two to three times each week using a sliding caliper. The median tumour volumes with the interquartile ranges are recorded on the graph.

O=C1Nc2ccc(CN3C(=O)CSC3=O)cc2C1=Cc1cc(CN2CCOCC2)c[nH]1 [compound A, 3-[(3-{[4-(4-morpholinyl-methyl)-1H-pyrrol-2-yl]methylene}-2-oxo-2,3-dihydro-1H-indol-5-yl)methyl]-1,3-thiazolidine-2,4-dione hydrochloride]
effect on the viability [1]: no effect on the viability | inhibition of the growth [2]: 83%
